Measurements: patent publication US11033598B2, “Pharmaceutical composition for preventing or treating hearing loss comprising oat extract as an active ingredient” (priority 2016, dated 2021)

Columns and labels:
HEI-OC1 cell line = experiment: DCF-DA assay of ROS generation in gentamicin hearing loss model cells; conditions: for protection of hearing loss (DCF-DA test) as compared to gentamicin only: 0.1 μg/ml to 2 μg/ml, 24 hours before gentamicin 4 μM; for protection of hearing loss (DCF-DA test) as compared to gentamicin only / increase rate of the DCF fluorescence intensity: HEI-OC1; for ROS generation rate (DCF-DA): Table 2; for increase rate of the DCF fluorescence intensity: 24 hrs
[1] = system: hearing loss mouse model (noise-induced hearing loss); experiment: Hearing threshold by auditory brainstem response (ABR) after exposure to noise; assay type: in vivo; conditions: mice; for effect of preserving the hearing threshold (ABR, tone burst): 4 kHz, 8 kHz, 16 kHz TB
Description: In order to verify a hearing preservation effect of avenanthramide before exposure to noise, an experiment for measuring a hearing threshold was performed using an auditory brainstem response. A method of measuring the auditory brainstem response (ABR) is a method of evaluating a response to a sound by measuring electric energy when a sound stimulus is transmitted as an electrical signal in the auditory nerve. When the sound reaches the auditory nerve through the outer ear, the middle ear, and the cochlea, the response reflects all states of the outer ear, the middle ear, and the cochlea and reflects the actual sound energy to which the sound energy reaches the brain. The hearing threshold refers to a minimum sensory point of sound that is barely audible, and in a normal mouse, the response is observed even on the small sound having the average of 20 to 30 dB.
Mice to which avenanthramide was administered and untreated control mice were divided into four groups of eight mice, respectively, and evaluated. The noise was exposed with a pure tone of 90 dB of 8 KHz for 6 hours and 10 μg/kg of avenanthramide was intraperitoneally administered to mice before 6 hours and 24 hours of exposure to noise. During the auditory brainstem response test, the stimulus sound was evaluated by lowering the sound gradually from 90 dB by 5 dB with a click sound of a broadband stimulus sound, and the smallest sound of the response was set as the threshold. In addition, the hearing threshold was measured with a stimulus sound of 4 kHz, 8 kHz, 16 kHz, 24 kHz, and 32 kHz tone burst (TB), and in order to verify a hearing preservation effect of avenanthramide, the experiment for measuring the hearing threshold was performed in the same manner as above. The result was illustrated in FIG. 7.
The noise was exposed with a pure tone of 90 dB 8 KHz for 6 hours and 10 μg/kg of avenanthramide was intraperitoneally administered to mice before 6 hours and 24 hours of exposure to noise. Then, the ABR test was performed after two weeks of noise induction in the same manner as Experimental Example 1-1 and the result was illustrated in FIG. 8.
The noise was exposed with a pure tone of 95 dB 8 KHz for 6 hours and 10 μg/kg of avenanthramide was intraperitoneally administered to mice before 6 hours and 24 hours of exposure to noise. Then, the ABR test was performed after two weeks of noise induction in the same manner as Experimental Example 1-1 and the result was illustrated in FIG. 9.

β-glucan [reference compound]
protection of hearing loss (DCF-DA test) as compared to gentamicin only (HEI-OC1 cell line): not verified that when the β-glucan was administered, particular protection of hearing loss was shown

gentamicin [reference compound]
ROS generation rate (DCF-DA) (HEI-OC1 cell line; GM 3 μM alone): 24.39
increase rate of DCF fluorescent intensity (HEI-OC1 cell line; GM 3 μM alone, Table 3): 56.06
increase rate of DCF fluorescent intensity (HEI-OC1 cell line; GM 4 μM only, Table 4): 11.51
increase rate of the DCF fluorescence intensity (HEI-OC1 cell line; Gentamicin 2 μM): 7.64%
increase rate of the DCF fluorescence intensity (HEI-OC1 cell line; Gentamicin 3 μM): 12.59%
increase rate of the DCF fluorescence intensity (HEI-OC1 cell line; Gentamicin 4 μM): 20.35%
generation amount of the ROS (HEI-OC1 cell line; as the treatment amount of gentamicin was increased (0-4 μM)): increased
cell death (HEI-OC1 cell line; gentamicin of 10 μM or more): the cells were almost died

O=C1O[C@H]([C@@H](O)CO)C(O)=C1O [ascorbic acid, reference compound]
protection of hearing loss (DCF-DA test) as compared to gentamicin only (HEI-OC1 cell line): not verified that when the ascorbic acid was administered, particular protection of hearing loss was shown

O=C(/C=C/c1ccc(O)c(O)c1)Nc1ccc(O)cc1C(=O)O [AVN, avenanthramide-C]
increase rate of DCF fluorescent intensity (HEI-OC1 cell line; AVN 0.5 μM 3 hr + GM 3 μM): 45.85
increase rate of DCF fluorescent intensity (HEI-OC1 cell line; AVN 0.5 μM 12 hr + GM 3 μM): 45.12
increase rate of DCF fluorescent intensity (HEI-OC1 cell line; AVN 0.5 μM 24 hr + GM 3 μM): 34.89
ROS generation rate (DCF-DA) (HEI-OC1 cell line; AVN 1 μM alone): 4.43
ROS generation rate (DCF-DA) (HEI-OC1 cell line; AVN 1 μM pretreated 24 hrs + GM 3 μM): 13.46
increase rate of DCF fluorescent intensity (HEI-OC1 cell line; AVN only (0.5 μM), Table 3): 32.27
increase rate of DCF fluorescent intensity (HEI-OC1 cell line; GM 4 μM + AVN 0.1 μM (24 hrs pretreatment)): 7.62
increase rate of DCF fluorescent intensity (HEI-OC1 cell line; GM 4 μM + AVN 0.2 μM): 5.4
increase rate of DCF fluorescent intensity (HEI-OC1 cell line; GM 4 μM + AVN 0.4 μM): 5.43
increase rate of DCF fluorescent intensity (HEI-OC1 cell line; GM 4 μM + AVN 0.6 μM): 5.36
increase rate of DCF fluorescent intensity (HEI-OC1 cell line; GM 4 μM + AVN 0.8 μM): 1.31
increase rate of DCF fluorescent intensity (HEI-OC1 cell line; GM 4 μM + AVN 1.0 μM): 1.62
increase rate of DCF fluorescent intensity (HEI-OC1 cell line; GM 4 μM + AVN 1.5 μM): 2.06
increase rate of DCF fluorescent intensity (HEI-OC1 cell line; GM 4 μM + AVN 2.0 μM): 1.26
increase rate of DCF fluorescent intensity (HEI-OC1 cell line; GM 4 μM + AVN 4.0 μM): 1.1
increase rate of DCF fluorescent intensity (HEI-OC1 cell line; GM 4 μM + AVN 6.0 μM): 0.81
ROS generated by gentamicin (HEI-OC1 cell line; as the avenanthramide treatment time increased (3, 12, 24 hr)): decreased
effect on the damage by gentamicin (HEI-OC1 cell line; avenanthramide 0.1 μM, GM 4 μM): did not affect the damage by gentamicin
decrease of the amount of ROS as compared to no avenanthramide (HEI-OC1 cell line; avenanthramide 0.2 μM, GM 4 μM): ≥ 50%
amount of ROS generated by gentamicin (HEI-OC1 cell line; avenanthramide pretreated for 24 hours): decreased
benefit in reducing the ROS generated by gentamicin (HEI-OC1 cell line; treatment of avenanthramide for 24 hours or more): no particular benefit
effect of suppressing hearing loss caused by the ROS (HEI-OC1 cell line; treatment time of avenanthramide 24 hours or more): up to the same level as a control
lowering of hearing threshold (ABR, click) versus exposure to noise without treatment ([1]; 10 μg/kg i.p. 6 and 24 hours before noise 90 dB 8 KHz 6 hours, ABR two weeks after noise, FIG. 8): ≥ 20 dB
lowering of hearing threshold (ABR, click) versus exposure to noise without treatment ([1]; 10 μg/kg i.p. 6 and 24 hours before noise 95 dB 8 KHz 6 hours, ABR two weeks after noise, FIG. 9): ≥ 40 dB
hearing threshold (ABR, click) versus control ([1]; 10 μg/kg i.p. before noise 95 dB 8 KHz 6 hours, ABR two weeks after noise, FIG. 9): almost the same threshold value as the control
hearing threshold (ABR, click) versus exposure to noise without treatment ([1]; 10 μg/kg intraperitoneally 6 hours and 24 hours before noise (90 dB, 8 KHz, 6 hours), FIG. 7): lower threshold
effect of preserving the hearing threshold (ABR, tone burst) ([1]; 10 μg/kg i.p. before noise 90 dB, FIG. 7): the effect of preserving the hearing threshold was high
effect of preserving the hearing threshold (ABR, tone burst) ([1]; noise 90 dB, ABR two weeks after noise, FIG. 8): the effect of preserving the hearing threshold was high
effect of preserving the hearing threshold (ABR, tone burst) ([1]; noise 95 dB, ABR two weeks after noise, FIG. 9): the effect of preserving the hearing threshold was high
